The subject of one data set is S. aureus biofilm. The data set can be described thus: In-vitro S. aureus biofilm model, treatment with oils of various polarity. The format is cell-based. Conditions: oils with log P within vs outside 0.5 to 2.0.
`CCOC(=O)c1cc(O)c(O)c(O)c1` [Ethyl Gallate]: the “antibacterial activity against biofilms (log reduction of bacteria vs. moist control, FIG. 1)” value is “exhibited some antibacterial activity against biofilms”.

In the case of `O=C(O)c1ccccc1` [Benzoic Acid], the “antibacterial activity against biofilms (log reduction of bacteria vs. moist control, FIG. 1)” value was “exhibited some antibacterial activity against biofilms”.

Take `COC(=O)c1ccccc1` [methyl benzoate]: the “antibacterial activity against biofilms (log reduction of bacteria vs. moist control, FIG. 1)” value is reported as “did not exhibit very much antimicrobial activity against biofilms”.

With `CCCCCCCC/C=C\CCCCCCCC(=O)O` [oleic acid], the “antibacterial activity against biofilms (log reduction of bacteria vs. moist control, FIG. 1)” value is listed as “did not exhibit very much antimicrobial activity against biofilms”.

As to `OCc1ccccc1` [Benzyl Alcohol], the “antibacterial activity against biofilms (log reduction of bacteria vs. moist control, FIG. 1)” value is recorded as “exhibited some antibacterial activity against biofilms”.

For the compound `CC(=O)OCC(COC(C)=O)OC(C)=O` [glyceryl triacetate], the “antibacterial activity against biofilms (log reduction of bacteria vs. moist control, FIG. 1)” value is listed as “did not exhibit very much antimicrobial activity against biofilms”.

Consider `Oc1cccc(O)c1` [Resorcinol], for which the “antibacterial activity against biofilms (log reduction of bacteria vs. moist control, FIG. 1)” value is listed as “exhibited some antibacterial activity against biofilms”.

For the compound `CCOC(C)=O` [Ethyl Acetate], the “antibacterial activity against biofilms (log reduction of bacteria vs. moist control, FIG. 1)” value is “exhibited some antibacterial activity against biofilms”.

Regarding `CCCCCCCCCCCC(=O)OCC(O)CO` (centres unmarked) [MONOMULS®, glyceryl monolaurate], the “antibacterial activity against biofilms (log reduction of bacteria vs. moist control, FIG. 1)” value is listed as “did not exhibit very much antimicrobial activity against biofilms”.

Consider `CCCCCCCCCCCCCC(=O)OC(C)C` [isopropyl myristate], for which the “antibacterial activity against biofilms (log reduction of bacteria vs. moist control, FIG. 1)” value is on record as “did not exhibit very much antimicrobial activity against biofilms”.

Take `CCCOC(=O)c1cc(O)c(O)c(O)c1` [Propyl Gallate]: the “antibacterial activity against biofilms (log reduction of bacteria vs. moist control, FIG. 1)” value was “exhibited some antibacterial activity against biofilms”.

In the case of diethyl acetate, the “antibacterial activity against biofilms (log reduction of bacteria vs. moist control, FIG. 1)” value is “did not exhibit very much antimicrobial activity against biofilms”.

Test system in another data set: not given
Test: not given
Particulars: reference standards with known log P values used for HPLC calibration; cited from earlier work.
For orientation: log P means a log measure of how a compound divides between an organic and an aqueous phase. Regarding `CCCCOC(=O)CCCCCCCCC(=O)OCCCC` [Dibutyl sebacate], the “log P” value is given as 6.3.

Take `O=C(C=Cc1ccccc1)OCc1ccccc1` [Benzyl cinnamate]: the “log P” value was 4.06.

Source of the values: patent publication US11641856B2 (SMITH & NEPHEW, INC., priority 2015, dated 2023).
